Experimental data taken from ChEMBL document CHEMBL5465560, “Selectivity Literature for EUbOPEN Chemogenomic Library” (2024).

Experiments:
[1] = target: Serine/threonine-protein kinase WNK4 (Homo sapiens) (UniProt Q96J92); assay: Selectivity interaction (KinomeScan (DiscoverX)) EUB0000229b WNK4; details: at 10 µM
[2] = target: T1, Ephrin type-B receptor 1 (Homo sapiens) (UniProt P54762); assay: Selectivity interaction (ProQinase) EUB0000171b EPHB1
T1 sequence (whole entry): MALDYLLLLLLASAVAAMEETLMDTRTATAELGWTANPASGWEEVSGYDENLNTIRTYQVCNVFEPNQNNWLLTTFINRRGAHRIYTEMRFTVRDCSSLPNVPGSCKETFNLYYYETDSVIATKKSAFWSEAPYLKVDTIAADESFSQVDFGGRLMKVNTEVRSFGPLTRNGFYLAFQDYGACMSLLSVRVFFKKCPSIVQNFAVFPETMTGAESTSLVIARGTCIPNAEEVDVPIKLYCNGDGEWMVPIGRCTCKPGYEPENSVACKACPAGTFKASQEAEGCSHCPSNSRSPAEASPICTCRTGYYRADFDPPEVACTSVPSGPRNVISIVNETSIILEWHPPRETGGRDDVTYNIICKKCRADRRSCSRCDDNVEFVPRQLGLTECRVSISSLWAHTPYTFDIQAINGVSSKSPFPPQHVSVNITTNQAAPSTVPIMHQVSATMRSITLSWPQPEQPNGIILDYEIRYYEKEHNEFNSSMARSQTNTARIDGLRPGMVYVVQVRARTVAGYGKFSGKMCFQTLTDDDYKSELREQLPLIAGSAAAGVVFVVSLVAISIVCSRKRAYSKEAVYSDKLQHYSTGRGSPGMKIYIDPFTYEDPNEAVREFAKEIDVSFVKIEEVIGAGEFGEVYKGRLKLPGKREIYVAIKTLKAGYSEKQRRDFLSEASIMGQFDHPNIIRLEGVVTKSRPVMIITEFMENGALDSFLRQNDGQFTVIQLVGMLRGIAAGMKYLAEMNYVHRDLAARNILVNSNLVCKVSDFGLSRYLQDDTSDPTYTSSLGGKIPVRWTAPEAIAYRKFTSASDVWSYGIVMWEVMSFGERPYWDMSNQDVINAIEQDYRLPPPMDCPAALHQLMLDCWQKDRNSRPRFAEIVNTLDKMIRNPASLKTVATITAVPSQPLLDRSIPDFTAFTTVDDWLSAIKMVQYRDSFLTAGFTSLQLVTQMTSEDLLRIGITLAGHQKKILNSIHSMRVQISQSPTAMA

[3] = target: Mitogen-activated protein kinase kinase kinase 9 (Homo sapiens) (UniProt P80192); assay: Selectivity interaction (ProQinase) EUB0000171b MAP3K9
[4] = target: T2, Phosphatidylinositol 5-phosphate 4-kinase type-2 gamma (Homo sapiens) (UniProt Q8TBX8); assay: Selectivity interaction (ActivX KiNativ screen (kinase selectivity in THP-1 cell lysates)) EUB0000639a PIP4K2C; type: subcellular; details: lysate, at 0.2 µM
T2 sequence (whole entry): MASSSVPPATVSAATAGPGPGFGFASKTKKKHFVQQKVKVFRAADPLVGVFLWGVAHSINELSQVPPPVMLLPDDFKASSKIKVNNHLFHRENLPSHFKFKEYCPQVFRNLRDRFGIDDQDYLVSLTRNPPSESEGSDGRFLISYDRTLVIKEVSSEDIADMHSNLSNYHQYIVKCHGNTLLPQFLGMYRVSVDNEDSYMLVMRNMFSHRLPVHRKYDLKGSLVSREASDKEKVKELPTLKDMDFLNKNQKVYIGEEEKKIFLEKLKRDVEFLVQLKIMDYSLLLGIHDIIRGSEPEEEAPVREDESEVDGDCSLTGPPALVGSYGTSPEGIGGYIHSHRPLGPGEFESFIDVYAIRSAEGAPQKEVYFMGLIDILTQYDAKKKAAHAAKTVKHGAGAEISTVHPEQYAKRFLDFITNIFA

[5] = target: Death-associated protein kinase 1 (Homo sapiens, UniProt P53355); assay: Selectivity interaction (Kinase panel (Invitrogen)) EUB0000639a DAPK1; details: at 200 nM
[6] = target: LIM domain kinase 2 (Homo sapiens) (UniProt P53671); assay: Selectivity interaction (KinomeScan (DiscoverX)) EUB0000607a LIMK2; details: at 10 µM
[7] = target: High affinity nerve growth factor receptor (Homo sapiens, UniProt P04629); assay: Selectivity interaction (Kinase panel (literature)) EUB0001199aCl NTRK1; details: at 1 µM
Sequence of High affinity nerve growth factor receptor (P04629 33-796 limits assumed): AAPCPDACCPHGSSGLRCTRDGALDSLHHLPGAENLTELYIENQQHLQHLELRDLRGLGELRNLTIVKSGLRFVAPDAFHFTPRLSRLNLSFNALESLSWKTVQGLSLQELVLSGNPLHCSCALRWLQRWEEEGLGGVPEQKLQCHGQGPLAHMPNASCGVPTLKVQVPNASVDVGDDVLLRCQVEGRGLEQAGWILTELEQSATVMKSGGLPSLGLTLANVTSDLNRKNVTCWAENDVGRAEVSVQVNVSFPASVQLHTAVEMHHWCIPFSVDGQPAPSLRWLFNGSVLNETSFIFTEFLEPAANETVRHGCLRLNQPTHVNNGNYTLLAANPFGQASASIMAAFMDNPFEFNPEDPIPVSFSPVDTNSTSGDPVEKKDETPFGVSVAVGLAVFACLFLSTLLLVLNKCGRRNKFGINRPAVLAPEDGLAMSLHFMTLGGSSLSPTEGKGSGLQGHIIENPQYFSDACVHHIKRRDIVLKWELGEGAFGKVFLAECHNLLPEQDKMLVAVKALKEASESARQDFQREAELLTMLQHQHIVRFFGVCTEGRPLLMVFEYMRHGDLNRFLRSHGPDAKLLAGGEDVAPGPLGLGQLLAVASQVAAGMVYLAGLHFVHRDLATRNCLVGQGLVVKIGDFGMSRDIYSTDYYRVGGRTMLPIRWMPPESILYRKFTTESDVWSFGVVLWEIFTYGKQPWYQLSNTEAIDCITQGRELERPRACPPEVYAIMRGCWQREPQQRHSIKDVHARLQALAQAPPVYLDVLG

Sequence of Mitogen-activated protein kinase kinase kinase 9 (Homo sapiens) (P80192 whole entry, looked up): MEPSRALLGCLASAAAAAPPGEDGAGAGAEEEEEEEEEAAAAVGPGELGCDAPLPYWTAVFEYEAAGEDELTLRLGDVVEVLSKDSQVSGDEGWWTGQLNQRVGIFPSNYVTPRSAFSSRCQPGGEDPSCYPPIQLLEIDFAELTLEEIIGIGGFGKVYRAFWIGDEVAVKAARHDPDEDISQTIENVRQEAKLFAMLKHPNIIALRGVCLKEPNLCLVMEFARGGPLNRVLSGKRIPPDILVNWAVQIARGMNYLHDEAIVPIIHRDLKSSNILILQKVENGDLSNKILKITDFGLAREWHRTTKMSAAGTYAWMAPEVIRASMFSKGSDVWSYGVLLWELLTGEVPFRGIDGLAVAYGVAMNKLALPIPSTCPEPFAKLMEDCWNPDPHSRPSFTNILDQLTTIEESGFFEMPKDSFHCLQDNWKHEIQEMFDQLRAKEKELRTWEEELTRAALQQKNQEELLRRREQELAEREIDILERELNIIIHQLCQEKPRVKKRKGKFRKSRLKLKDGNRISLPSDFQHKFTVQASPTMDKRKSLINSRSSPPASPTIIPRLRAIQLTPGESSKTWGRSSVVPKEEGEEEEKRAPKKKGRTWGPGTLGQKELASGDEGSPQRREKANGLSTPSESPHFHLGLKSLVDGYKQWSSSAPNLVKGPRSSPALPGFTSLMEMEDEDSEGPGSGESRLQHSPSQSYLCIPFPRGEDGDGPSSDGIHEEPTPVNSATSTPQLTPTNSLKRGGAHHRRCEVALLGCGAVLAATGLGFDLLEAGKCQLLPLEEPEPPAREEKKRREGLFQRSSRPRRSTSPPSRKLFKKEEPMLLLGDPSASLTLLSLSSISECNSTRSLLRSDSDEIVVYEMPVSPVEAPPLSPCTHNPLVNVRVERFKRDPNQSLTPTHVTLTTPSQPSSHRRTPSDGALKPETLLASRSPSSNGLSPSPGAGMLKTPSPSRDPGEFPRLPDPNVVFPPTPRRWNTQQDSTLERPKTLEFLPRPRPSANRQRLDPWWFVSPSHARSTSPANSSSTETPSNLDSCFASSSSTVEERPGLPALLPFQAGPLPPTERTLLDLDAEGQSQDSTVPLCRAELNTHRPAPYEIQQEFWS
Sequence of Death-associated protein kinase 1 (P53355 whole entry, looked up, the tested form may be a part): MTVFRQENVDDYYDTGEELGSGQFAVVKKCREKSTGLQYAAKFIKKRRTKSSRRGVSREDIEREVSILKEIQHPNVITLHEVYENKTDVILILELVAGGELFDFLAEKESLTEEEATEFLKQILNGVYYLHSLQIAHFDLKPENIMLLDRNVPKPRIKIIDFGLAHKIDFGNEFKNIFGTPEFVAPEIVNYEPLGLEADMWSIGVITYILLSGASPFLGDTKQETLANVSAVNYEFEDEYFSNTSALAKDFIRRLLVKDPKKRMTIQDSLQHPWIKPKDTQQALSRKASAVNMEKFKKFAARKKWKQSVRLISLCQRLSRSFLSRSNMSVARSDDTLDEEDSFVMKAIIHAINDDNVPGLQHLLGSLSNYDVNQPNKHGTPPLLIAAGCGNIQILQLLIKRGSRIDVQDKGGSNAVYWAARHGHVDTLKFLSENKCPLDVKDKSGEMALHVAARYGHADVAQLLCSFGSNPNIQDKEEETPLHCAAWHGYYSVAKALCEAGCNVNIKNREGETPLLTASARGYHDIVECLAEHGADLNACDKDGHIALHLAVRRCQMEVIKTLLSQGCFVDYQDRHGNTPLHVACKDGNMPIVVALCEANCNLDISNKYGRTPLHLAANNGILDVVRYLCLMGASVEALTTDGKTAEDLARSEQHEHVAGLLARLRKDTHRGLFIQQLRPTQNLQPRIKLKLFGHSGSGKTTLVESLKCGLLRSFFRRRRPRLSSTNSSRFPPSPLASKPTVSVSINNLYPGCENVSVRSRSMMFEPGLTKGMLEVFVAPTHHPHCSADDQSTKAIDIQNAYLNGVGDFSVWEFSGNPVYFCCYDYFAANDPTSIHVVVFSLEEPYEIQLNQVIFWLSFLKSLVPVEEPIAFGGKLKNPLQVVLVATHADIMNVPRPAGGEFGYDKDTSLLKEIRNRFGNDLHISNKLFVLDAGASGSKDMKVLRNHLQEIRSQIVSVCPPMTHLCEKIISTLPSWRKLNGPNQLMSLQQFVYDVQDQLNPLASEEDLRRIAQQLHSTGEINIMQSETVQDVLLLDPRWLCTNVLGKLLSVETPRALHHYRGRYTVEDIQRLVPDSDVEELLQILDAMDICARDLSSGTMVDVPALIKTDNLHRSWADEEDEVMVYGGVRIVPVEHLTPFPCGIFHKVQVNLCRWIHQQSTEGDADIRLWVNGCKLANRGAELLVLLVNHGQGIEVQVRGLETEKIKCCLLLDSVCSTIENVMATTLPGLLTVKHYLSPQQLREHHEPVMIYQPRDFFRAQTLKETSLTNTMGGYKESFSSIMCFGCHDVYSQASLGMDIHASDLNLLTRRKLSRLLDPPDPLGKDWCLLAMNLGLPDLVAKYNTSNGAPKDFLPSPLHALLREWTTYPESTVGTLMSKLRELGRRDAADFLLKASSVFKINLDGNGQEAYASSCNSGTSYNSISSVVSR
Sequence of Serine/threonine-protein kinase WNK4 (Homo sapiens) (Q96J92 whole entry): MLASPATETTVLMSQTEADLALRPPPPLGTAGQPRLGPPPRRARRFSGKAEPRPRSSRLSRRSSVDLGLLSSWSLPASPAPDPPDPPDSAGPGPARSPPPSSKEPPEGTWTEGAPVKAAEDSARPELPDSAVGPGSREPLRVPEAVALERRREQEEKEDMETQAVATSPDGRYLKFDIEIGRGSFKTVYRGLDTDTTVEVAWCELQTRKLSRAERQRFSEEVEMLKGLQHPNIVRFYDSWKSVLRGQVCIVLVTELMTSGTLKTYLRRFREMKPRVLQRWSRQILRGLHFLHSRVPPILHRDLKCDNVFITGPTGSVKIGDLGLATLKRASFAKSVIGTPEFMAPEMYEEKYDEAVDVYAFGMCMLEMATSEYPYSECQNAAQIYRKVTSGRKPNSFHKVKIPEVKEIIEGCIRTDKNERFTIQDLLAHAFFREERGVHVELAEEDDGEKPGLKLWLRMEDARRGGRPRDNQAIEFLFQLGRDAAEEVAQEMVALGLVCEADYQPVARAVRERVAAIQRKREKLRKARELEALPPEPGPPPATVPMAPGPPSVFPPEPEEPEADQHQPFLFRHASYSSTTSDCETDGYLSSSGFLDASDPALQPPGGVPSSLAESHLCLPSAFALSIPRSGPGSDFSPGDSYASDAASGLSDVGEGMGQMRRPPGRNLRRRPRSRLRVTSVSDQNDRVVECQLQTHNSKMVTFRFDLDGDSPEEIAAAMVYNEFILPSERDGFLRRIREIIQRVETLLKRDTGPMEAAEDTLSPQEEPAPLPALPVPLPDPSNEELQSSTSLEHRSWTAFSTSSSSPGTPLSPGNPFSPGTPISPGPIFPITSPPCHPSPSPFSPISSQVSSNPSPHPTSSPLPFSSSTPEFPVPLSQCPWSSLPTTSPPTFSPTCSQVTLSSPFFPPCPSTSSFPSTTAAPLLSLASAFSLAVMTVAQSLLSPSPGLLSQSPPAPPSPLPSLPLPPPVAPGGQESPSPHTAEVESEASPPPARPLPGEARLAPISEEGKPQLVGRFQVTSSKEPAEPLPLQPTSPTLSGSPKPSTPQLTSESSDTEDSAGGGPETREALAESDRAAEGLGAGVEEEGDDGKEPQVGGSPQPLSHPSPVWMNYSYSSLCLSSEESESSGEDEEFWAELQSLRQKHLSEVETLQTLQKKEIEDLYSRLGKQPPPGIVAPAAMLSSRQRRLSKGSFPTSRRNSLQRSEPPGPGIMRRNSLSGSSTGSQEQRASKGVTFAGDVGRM

## COc1cc(N(C)c2ccnc3ccc(C(F)(F)F)cc23)cc(OC)c1OC
[1]
  % binding: 100%

## C=CC(=O)Nc1cccc(C(=O)Nc2ccc(Nc3cc(-c4[nH]c(SC)nc4C)ccn3)cc2)c1
[2]; at 1 µM
  % of control: 83%
[2]; at 5 µM
  % of control: 82%
[3]; at 1 µM
  % of control: 80%
[3]; at 5 µM
  % of control: 45%

## CC[C@@H]1[C@H](F)C(=O)N[C@@H]1COc1nccc2cc(C(N)=O)c(OC)cc12 [ZIMLOVISERTIB]
[4]
  % of inhibition: 51.3%
[5]
  % of inhibition: 16.2%

## CNC(=O)Nc1ccc(-c2nc(N3CC4CCC(C3)O4)c3cnn(C4CCC5(CC4)OCCO5)c3n2)cc1
[6]
  % of control: 88%

## CN1Cc2nccc(-c3cn(C)nc3-c3ccc(F)cc3)c2C1=O
[7]
  % of inhibition: 15%
